Where two headings read alike, the source gives them in different places.
How the values were obtained:
[1] = system: LPS-induced nitrite production in RAW 264.7 macrophages; test: Nitrite assay (Griess reaction); type: cell-based, mouse; conditions: 100 ng/ml LPS, PMF 30 μM, 24 h, FIG. 3
Description: Compounds or compositions were tested for anti-inflammatory effects by monitoring nitrite production in LPS-activated RAW264.7 cells. After treating the cells with LPS or LPS and test substance, supernatants were harvested and the amount of nitrite, an indicator of NO synthesis, was measured by use of the Griess reaction. Briefly, supernatants (100 μl) were mixed with the same volume of Griess reagent (1% sulphanilamide in 5% phosphoric acid and 0.1% naphthylethylenediamine dihydrochloride in water) in duplicate on 96-well plates. After incubation at room temperature for 10 min, absorbance at 570 nm was measured with a ELISA reader (Thermo Labsystems Multiskan Ascent, Finland).
The anti-inflammatory effects of compounds A-K were tested by measuring nitrite production in LPS-activated RAW 264.7 macrophages, as described in Section 8.4 above. Macrophages were treated with 100 ng/ml LPS alone or LPS and PMF (10 or 30 μM) for 24 h. At the end of incubation time, 100 μl of the culture medium was collected for the nitrite assay.

COLO205 cells = test: Apoptotic ratio by propidium iodide flow cytometry (AC50); type: cell-based, human; conditions: Homo sapiens
Description: (§1) The human cancer cells (2×10^5) were cultured in 60-mm Petri dishes and incubated for 24 h. After treated with test compounds for 24 h, the cells were then harvested, washed with PBS resuspended in 200 μL of PBS, and fixed in 800 μL of iced 100% ethanol at −20° C. After being left to stand overnight, the cell pellets were collected by centrifugation, resuspended in 1 mL of hypotonic buffer (0.5% Triton X-100 in PBS and 0.5 μg/mL RNase) and incubated at 37° C. for 30 min. Next, 1 mL of propidium iodide solution (50 μg/mL) was added, and the mixture was allowed to stand on ice for 30 min. Fluorescence emitted from the propidium iodide-DNA complex was quantitated after excitation of the fluorescent dye by FACScan cytometry (Becton Dickinson, San Jose, Calif.).
(§2) 1 N PMF and 6 N PMF compositions containing hydroxylated PMFs, prepared as described in Section 8.3 above, 70% PMF OPE and 5,6,7,8,3′,4′-hexamethoxyflavone (nobiletin) were tested for antiproliferative activity and apoptosis-inducing activity in HL-60, AGS and COLO205 cells as described in Section 8.4 above. Antiproliferative and apoptosis-inducing activities were derived as IC50 values and AC50, values, respectively, where AC50 is the concentration required for 50% apoptosis.
(§3) The PMF compounds were assayed in vitro for cell growth inhibition and for their ability to induce apoptosis in various human cancer cells, including HL-60, AGS, COLO 205, and HT-29 cells, using methods described in Section 8.4 above. Antiproliferative (IC50) and apoptosis-inducing activity (AC50) of PMFs in the HL-60, AGS, COLO 205, and HT-29 cells are reported in Table 9, where *P<0.05, **P<0.01 and ***P<0.001 indicate statistically significant differences from the control group.

HL-60 cells [2] = test: as above; type: cell-based, human; conditions: Homo sapiens
Description: as §1, §2, §3

AGS cells = test: as above; type: cell-based, human; conditions: Homo sapiens, read-out: Apoptosis-inducing AC50
Description: as §1, §2, §3

HT-29 cells = test: Cell survival assay (antiproliferative IC50); type: cell-based, human; conditions: Homo sapiens
Description: Human colon carcinoma COLO205 and HT-29 cell lines (American Type Culture Collection (ATTC), Manassas, Va.) and the leukemia cell line HL-60 were maintained at 37° C. in 5% CO2 air in RPMI 1640 medium supplemented with 10% heat-inactivated fetal bovine serum (Gibco BRL, Grand Island, N.Y.), 100 units/mL penicillin, 100 μg/mL streptomycin and 2 mM 1-glutamine. The human gastric carcinoma AGS cell line (CCRC 60102), obtained from the Food Industry Research and Development Institute (Hsinchu, Taiwan), was maintained as described above, except that DMEM/F 12 was used as the medium rather than the RPMI 1640 medium. The human breast carcinoma MCF-7 cell line MCF-7 (ATTC) was cultured in RPMI 1640 medium supplemented with 5% fetal calf serum at 37° C. in a humidified atmosphere of 5% CO2 in air. The mouse macrophage cell line RAW 264.7 was maintained in RPMI 1640 supplemented with 100 U/ml penicillin, 100 μg/ml streptomycin, and 10% heat-inactivated fetal calf serum.
Cancer cells (2×10^5) were plated in 12-well Petri dishes. The next day, the medium was changed and treated with different concentration of the test compounds or compositions for 24 h. Where individual compounds were to be tested, stock solutions of the compound was prepared to contain 200 μM of the individual hydroxylated or non-hydroxylated PMF in dimethylsulfoxide (DMSO). Control cells were treated with DMSO to a final concentration of 0.05% (v/v). Depending on the objective of the particular experiment, cells were treating with test compound or composition for 1, 3 or 6 days. At the end of incubation, cells were harvested for cell count using a hemocytometer and measuring the cellular total nucleic acid content with the CyQUANT Cell Proliferation Assay Kit (Molecular Probes).
as §3

HL-60 cells [3] = test: Cell cycle distribution by flow cytometry; type: cell-based, human; conditions: for Cell Cycle Distribution G0/G1 / Cell Cycle Distribution G2/M / Cell Cycle Distribution S / Cell cycle arrest, in words: 24 h; for Cell Cycle Distribution G0/G1 / Cell Cycle Distribution G2/M / Cell Cycle Distribution S: Table 10
Description: as §1
The effects of the hydrolyzed PMF-enriched compositions, nobiletin and 70% PMF OPE on cell cycle distribution were studied, following the procedures described in Section 8.4. Results for cell cycle distribution in HL-60 cells, COLO205 cells and AGS cells are provided in Table 5, Table 6 and Table 7, respectively. […] In HL-60 cells, G2/M arrest predominated in cells treated with 6N PMF concentrations ≧5 μM and with 1N PMF concentrations ≧25 μM.
Compounds A-K were evaluated in terms of their effects in arresting cell cycle progression by observing cell cycle phase distribution in cells treated with the compounds. Cells were treated with 5, 10, 25, 50, and 100 μM of one of compound A-K or DMSO (control) for 24 h and subjected to flow cytometric analysis after staining their DNA, as described above.

[4] = COLO 205, COLO205 cells, read-out: Apoptosis-inducing AC50
[5] = HL-60 cells, read-out: Apoptosis-inducing AC50
[6] = COLO 205, read-out: Apoptosis-inducing AC50
[7] = HL-60, read-out: Apoptosis-inducing AC50

SMILES | Rank of inhibitory potency on LPS-induced nitrite production [1] | AC50 (COLO205 cells; [4]) [µM] | AC50 (HL-60 cells [2]; [5]) [µM] | AC50 (AGS cells; AGS cells) [µM] | IC50 (HT-29 cells) [µM] | Cell Cycle Distribution G0/G1 (HL-60 cells [3]; 5 μM) | Cell Cycle Distribution G2/M (HL-60 cells [3]; 5 μM) | Cell Cycle Distribution S (HL-60 cells [3]; 5 μM) | Cell Cycle Distribution G0/G1 (HL-60 cells [3]; 10 μM) | Cell Cycle Distribution G2/M (HL-60 cells [3]; 10 μM) | Cell Cycle Distribution S (HL-60 cells [3]; 10 μM) | Cell Cycle Distribution G0/G1 (HL-60 cells [3]; 25 μM) | Cell Cycle Distribution G2/M (HL-60 cells [3]; 25 μM) | Cell Cycle Distribution S (HL-60 cells [3]; 25 μM) | Cell Cycle Distribution G0/G1 (HL-60 cells [3]; 50 μM) | Cell Cycle Distribution G2/M (HL-60 cells [3]; 50 μM) | Cell Cycle Distribution S (HL-60 cells [3]; 50 μM) | Cell Cycle Distribution G0/G1 (HL-60 cells [3]; 100 μM) | Cell Cycle Distribution G2/M (HL-60 cells [3]; 100 μM) | Cell Cycle Distribution S (HL-60 cells [3]; 100 μM) | also measured
COc1ccc(-c2oc3c(OC)c(OC)c(OC)c(O)c3c(=O)c2OC)cc1OC [Compound C, 5-hydroxy-3,6,7,8,3′,4′-hexamethoxyflavone] | H>G>K>C>I>B | > 100 | 63.65 ± 0.61 | 18.9 ± 0.41 | 77.4 ± 1.82 | 70.99 ± 0.49 | 0.95 ± 0.35 | 28.07 ± 0.99 | 78.47 ± 0.64 | 19.89 ± 1.06 | 1.64 ± 0.42 | 40.12 ± 0.64 | 20.37 ± 0.57 | 39.51 ± 0.57 | 51.42 ± 1.13 | 11.64 ± 1.06 | 36.94 ± 0.85 | 50.23 ± 1.91 | 18.74 ± 1.56 | 31.03 ± 1.06 | Cell cycle arrest, in words (HL-60 cells [3]; 25 μM): decrease in G1 arrest was accompanied by an increase in G2/M phase cell population; Cell cycle arrest, in words (HL-60 cells [3]; 25-100 μM): significant G1 arrest
COc1ccc(-c2cc(=O)c3c(OC)c(OC)c(OC)c(OC)c3o2)cc1O [I, 3′-hydroxy-5,6,7,8,4′-pentamethoxyflavone] | H>G>K>C>I>B |  |  |  | > 100 | 44.51 ± 2.37 | 9.23 ± 0.16 | 46.27 ± 2.21 | 43.22 ± 1.85 | 11.92 ± 0.64 | 44.86 ± 2.49 | 50.55 ± 0.97 | 10.75 ± 0.41 | 38.71 ± 1.38 | 50.23 ± 1.94 | 6.36 ± 1.69 | 43.41 ± 3.62 | 65.54 ± 4.07 | 13.24 ± 11.61 | 21.31 ± 15.55 | AC50 (COLO205 cells; [6]): > 100 µM; AC50 (HL-60 cells [2]; [7]): 94.6 ± 1.5 µM; AC50 (AGS cells; AGS): > 100 µM
COc1c(OC)c(OC)c2c(=O)cc(-c3ccc(O)c(O)c3)oc2c1OC [H, 3′,4′-dihydroxy-5,6,7,8-tetramethoxyflavone] | H>G>K>C>I>B |  |  |  | 74.72 ± 0.2 | 49.78 ± 1.80 | 4.37 ± 5.00 | 45.85 ± 6.80 | 49.29 ± 1.53 | 2.76 ± 3.90 | 47.95 ± 5.43 | 52.82 ± 0.15 | 5.49 ± 1.11 | 41.68 ± 0.93 | 62.04 ± 1.19 | 10.70 ± 0.89 | 27.27 ± 0.31 | 61.15 ± 7.03 | 25.94 ± 8.32 | 12.91 ± 15.34 | AC50 (COLO205 cells; [6]): > 100 µM; AC50 (HL-60 cells [2]; [7]): > 100 µM; AC50 (AGS cells; AGS): > 100 µM; Cell cycle arrest, in words (HL-60 cells [3]; 25-100 μM): significant G1 arrest
COc1ccc(-c2cc(=O)c3c(O)c(OC)c(OC)c(OC)c3o2)cc1O [Compound K, 5,3′-dihydroxy-6,7,8,4′-tetramethoxyflavone] | H>G>K>C>I>B | > 100 | > 100 | 70 ± 1.4 | 40 | 0.56 ± 0.76 | 35.91 ± 0.11 | 60.54 ± 4.90 | 0.38 ± 0.06 | 54.41 ± 4.77 | 45.22 ± 4.83 | 0.68 ± 0.42 | 49.12 ± 2.64 | 50.23 ± 3.08 | 2.63 ± 2.50 | 45.05 ± 0.01 | 52.33 ± 2.51 | 3.18 ± 2.62 | 30.61 ± 4.64 | 66.21 ± 1.72 | G2/M cell cycle arrest, in words (HL-60 cells [3]): strongly potentiated the G2/M cell cycle arrest
COc1cc(-c2cc(=O)c3c(OC)c(OC)c(OC)c(OC)c3o2)ccc1O [Compound G, 4′-hydroxy-5,6,7,8,3′-pentamethoxyflavone] | H>G>K>C>I>B | > 100 | 87.1 ± 7.83 | > 100 | 45.8 | 41.79 ± 0.80 | 4.80 ± 6.73 | 53.41 ± 5.93 | 43.26 ± 2.02 | 12.61 ± 0.11 | 44.15 ± 2.12 | 55.71 ± 0.15 | 8.39 ± 0.16 | 35.90 ± 0.01 | 52.35 ± 1.09 | 12.18 ± 3.83 | 35.48 ± 4.91 | 65.44 ± 5.42 | 11.21 ± 8.27 | 23.35 ± 13.67 | 
